Reference: publication PMC8400246, “Antimicrobial Activity and Action Mechanisms of Arg-Rich Short Analog Peptides Designed from the C-Terminal Loop Region of American Oyster Defensin (AOD)” (Marine Drugs, 2021)
Positions of bridges follow the written chain, without caps; N, C: chain ends. Residues, ends and D or L forms follow the SMILES beside them.

How the values were obtained:
[1] = tested on: several microorganisms; conditions: analog peptides from the C-terminus of MGD-1; cited from earlier work
Description: This peptide contains three disulfide bridges linked with six cysteine (Cys) residues, which contribute to its structural stability. For the development of potential AMPs from AOD, the AOD molecule may be inappropriate due to its complex structure containing six Cys residues and long sequence length (38 residues), which complicate the recreation of its structure and increase production costs. In a previou ...

[2] = tested on: B. subtilis KCTC1021; assay: Ultrasensitive radial diffusion assay (URDA), MEC; type: cell-based, Bacillus subtilis; conditions: B. subtilis KCTC1021, Gram +, 10 mM phosphate buffer pH 6.6, 37 °C, X-intercept of clearing zone vs log10 concentration, triplicate, averaged
Protocol: (§1) The antimicrobial activity of the AOD analogs was assessed with an ultrasensitive radial diffusion assay (URDA), as described previously. The antimicrobial activity of the analogs (from 31.3 to 1000 μg/mL, 5 μL volume) was tested against several bacteria, including Bacillus subtilis KCTC1021, Streptococcus mutans KCCM40105, Aeromonas hydrophila KCTC2358, Escherichia coli D31, E. coli ML35p, Pseudomonas aeruginosa KCTC2004, Salmonella enterica KCTC2514, and Shigella sonnei KCTC2009. In addition, Cutibacterium acnes KCTC3314, Staphylococcus epidermidis KCTC1917, and Candida albicans KCTC7965 were used for the anti-acne activity test. All except C. acnes KCTC3314 were grown overnight for 18 h in tryptic soy broth (TSB; for bacteria) or Sabouraud dextrose broth (SDB; for C. albicans) at the appropriate temperature (25 °C for A. hydrophila, 37 °C for the others). C. acnes was grown for 72 h in reinforced clostridial medium (RCM) under anaerobic conditions with an anaerobic gas-generating pouch (GasPak EZ; Becton Dickinson and Company, Sparks, MD, USA) at 37 °C. Following overnight or 72-h incubation, the bacterial and C. albicans suspensions were diluted to a McFarland turbidity standard level of 0.5 (Vitek Colorimeter #52-1210; Hach, Loveland, CO, USA) corresponding to approximately 10^8 colony forming units (CFU)/mL for bacteria and 10^6 CFU/mL for C. albicans. Diluted bacterial or C. albicans suspension (0.5 mL) was added to 9.5 mL underlay gel containing 5 × 10^6 or 5 × 10^4 CFU/mL in 10 mM phosphate buffer (pH 6.6) with 0.03% TSB (or RCM) or 0.03% SDB and 1% Type I low-electroendosmosis agarose. The AOD analogs were serially diluted two-fold in 5 µL acidified water (0.01% acetic acid; HAc) and each dilution was added to 2.5-mm diameter wells in the 1-mm thick underlay gel. After incubation for 3 h at either 25 °C (for A. hydrophila) or 37 °C (for the others), the bacterial or yeast suspension was overlaid with 10 mL double-strength overlay gel containing 6% TSB, RCM, or SDB with 10 mM phosphate buffer (pH 6.6) in 1% agarose. Plates were incubated for an additional 18–24 h (72 h for C. acnes) and the clearing zone diameters were measured. After subtracting the diameter of the well (2.5 mm), the clearing zone diameter was expressed in units (0.1 mm = 1 U).
(§2) The minimal effective concentration (MEC; μg/mL) of the AOD analogs was calculated as the X-intercept of a plot of clearing zone diameter units against the log10 of the peptide concentration. Piscidin 1, an α-helical AMP isolated from hybrid striped bass (Morone saxatilis × Morone chrysops) was used as a positive control.

[3] = tested on: S. mutans KCCM40105; assay: Ultrasensitive radial diffusion assay (URDA), MEC; type: cell-based, Streptococcus mutans; conditions: S. mutans KCCM40105, Gram +, pH 6.6, 37 °C, triplicate, averaged
Protocol: as §1, §2

[4] = tested on: A. hydrophila KCTC2358; assay: Ultrasensitive radial diffusion assay (URDA), MEC; type: cell-based, Aeromonas hydrophila; conditions: A. hydrophila KCTC2358, Gram -, pH 6.6, 25 °C, triplicate, averaged
Protocol: as §1, §2

[5] = tested on: E. coli D31; assay: Ultrasensitive radial diffusion assay (URDA), MEC; type: cell-based, Escherichia coli; conditions: E. coli D31, Gram -, pH 6.6, 37 °C, triplicate, averaged
Protocol: as §1, §2

[6] = tested on: E. coli ML35p; assay: Ultrasensitive radial diffusion assay (URDA), MEC; type: cell-based, Escherichia coli; conditions: Gram -, pH 6.6, 37 °C, triplicate, averaged
Protocol: as §1, §2

[7] = tested on: P. aeruginosa KCTC2004; assay: Ultrasensitive radial diffusion assay (URDA), MEC; type: cell-based, Pseudomonas aeruginosa; conditions: P. aeruginosa KCTC2004, Gram -, pH 6.6, 37 °C, triplicate, averaged
Protocol: as §1, §2

[8] = tested on: S. enterica KCTC2514; assay: Ultrasensitive radial diffusion assay (URDA), MEC; type: cell-based, Salmonella enterica; conditions: S. enterica KCTC2514, Gram -, pH 6.6, 37 °C, triplicate, averaged
Protocol: as §1, §2

[9] = tested on: S. sonnei KCTC2009; assay: Ultrasensitive radial diffusion assay (URDA), MEC; type: cell-based, Shigella sonnei; conditions: S. sonnei KCTC2009, Gram -, pH 6.6, 37 °C, triplicate, averaged
Protocol: as §1, §2

[10] = tested on: C. albicans KCTC7965; assay: Ultrasensitive radial diffusion assay (URDA), MEC; type: cell-based, Candida albicans; conditions: C. albicans KCTC7965, yeast, SDB, pH 6.6, 37 °C, triplicate, averaged
Protocol: as §1, §2

[11] = tested on: 100-bp DNA ladder and DNA polymerase; assay: Competitive binding between DNA and DNA polymerase; conditions: 1 μg peptide, 0.2 μg 100-bp DNA ladder, DNA polymerase 1.0 μL (5 units/μL), 37 °C, 60 min
Protocol: To assess the preferential binding ability of the AOD analogs to DNA or DNA polymerase, a competitive binding assay was performed. Briefly, AOD analog was added to a reaction mixture containing DNA or DNA polymerase and incubated for 60 min at 37 °C. […] Piscidin 1 and 0.01% HAc were the positive and negative controls, respectively.

[12] = tested on: E. coli DH5α genomic DNA (16S ribosomal gene); assay: DNA amplification (PCR) inhibition assay; type: biochemical, Escherichia coli; conditions: 1.5 µg of each analog, 0.2 µg E. coli DH5α gDNA, 30 cycles
Protocol: To determine whether AOD analogs target DNA amplification, the ability of the analogs to inhibit DNA amplification was assessed using E. coli DH5α genomic DNA (gDNA). Total gDNA was extracted using the phenol–chloroform method, as described previously. To assess the inhibition of DNA amplification, 1.5 µg AOD analog was added to the polymerase chain reaction (PCR) mixture. The PCR solution consisted of 0.2 µg purified gDNA, 5 µL 10× PCR buffer with MgCl2, 4 µL of each dNTP at 2.5 mM, 0.25 μL Ex Taq polymerase (Takara Bio, Shiga, Japan), 2.0 pmol each of primers 27F (5′-[…]-3′) and 1492R (5′-TACGGCTACCTTGTTACGA-CTT-3′), and up to 50 µL sterile distilled water. The PCR thermal cycling conditions were as follows: initial denaturation at 94 °C for 5 min; 30 cycles of 94 °C for 30 s, 55 °C for 30 s, and 72 °C for 2 min; and a final extension for 10 min at 72 °C. PCR was conducted using a Type 9700 Thermal Cycler (Perkin-Elmer, Norwalk City, CA, USA). The PCR products were confirmed through 1.5% agarose gel electrophoresis with 0.5 μg/mL EtBr. Piscidin 1 was used as a positive control and 0.01% HAc was used as a negative control.

[13] = tested on: human red blood cells (RBCs; blood type B); conditions: 3% hematocrit, 3.13–100 μg/mL, 60 min, 37 °C, absorbance 542 nm, triplicate
[14] = tested on: C. acnes KCTC3314; assay: Ultrasensitive radial diffusion assay (URDA), MEC; type: cell-based, Cutibacterium acnes; conditions: C. acnes KCTC3314, Gram +, anaerobic, RCM, 72 h, 37 °C, triplicate, averaged
Protocol: as §1, §2

[15] = tested on: S. epidermidis KCTC1917; assay: Ultrasensitive radial diffusion assay (URDA), MEC; type: cell-based, Staphylococcus epidermidis; conditions: S. epidermidis KCTC1917, Gram +, pH 6.6, 37 °C, triplicate, averaged
Protocol: as §1, §2

[16] = tested on: 100-bp DNA ladder; assay: DNA binding assay (electrophoretic mobility shift); conditions: 1 μg analog with 0.2 μg 100-bp DNA ladder, 37 °C, 60 min, 1.8% agarose gel with EtBr
Protocol: To evaluate the binding ability of the AOD analogs to intracellular components, a DNA binding assay was performed as previously described with minor modifications. The DNA-binding ability of the AOD analogs was assessed through observation of the inhibition of migration of DNA bands through agarose gels. A commercial 100-bp DNA ladder (0.2 μg) (Bioneer Corp., Daejeon, South Korea) was mixed with each analog (1 μg) in 0.01% acetic acid, and the resulting mixture was incubated at 37 °C for 60 min and then electrophoresed on 1.8% agarose gels containing 0.5 μg/mL ethidium bromide (EtBr). HAc (0.01%) was used as a negative control.
To determine the concentration required for the interaction of AOD analogs with DNA, a DNA binding assay was performed with various mixing ratios of analog A3 (0.25–1.0 μg/mL) and 100-bp DNA ladder (0.1–0.4 μg), as described above.

[17] = tested on: V. parahaemolyticus gDNA; assay: Bacterial gDNA binding (electrophoretic mobility shift); parameters: species or system Vibrio parahaemolyticus; conditions: 1 μg of analog with V. parahaemolyticus gDNA, agarose gel
Protocol: To evaluate the binding ability of the AOD analogs to intracellular components, a DNA binding assay was performed as previously described with minor modifications. The DNA-binding ability of the AOD analogs was assessed through observation of the inhibition of migration of DNA bands through agarose gels. […] HAc (0.01%) was used as a negative control.

Compound | antimicrobial activity (in words) [1] | Minimal Effective Concentration [2] | Minimal Effective Concentration [3] | Minimal Effective Concentration [4] | Minimal Effective Concentration [5] | Minimal Effective Concentration [6] | Minimal Effective Concentration [7] | Minimal Effective Concentration [8] | Minimal Effective Concentration [9] | Minimal Effective Concentration [10] | competitive binding between DNA and DNA polymerase (electrophoretic mobility of DNA) [11] | inhibition of DNA amplification (PCR) [12] | hemolytic activity [13] | Minimal Effective Concentration [14] | Minimal Effective Concentration [15] | electrophoretic mobility of the DNA (DNA-binding ability) [16] | electrophoretic mobility of V. parahaemolyticus gDNA [17]
CGGWHRLRC [analog peptide derived from the C-terminus (loop 3) of MGD-1] | potent antimicrobial activity |  |  |  |  |  |  |  |  |  |  |  |  |  |  |  | 
Piscidin 1: α-helical AMP isolated from hybrid striped bass, used as a positive control (FFHHIFRGIVHVGKTIHRLVTG) [reference compound] |  | 2.3 µg/mL | 3.2 µg/mL | 9.1 µg/mL | 2.0 µg/mL | 2.3 µg/mL | 8.0 µg/mL | 4.6 µg/mL | 8.6 µg/mL | 11.8 µg/mL | preferentially binds to DNA polymerase over DNA | did not inhibit | strong hemolysis, even at very low concentrations (from 6.25 μg/mL) |  |  |  | 
CKKWKRKRC [Lys-substituted analog peptide derived from …] | stronger antibacterial activity than the parent analog peptide |  |  |  |  |  |  |  |  |  |  |  |  |  |  |  | 
N=C(N)NCCC[C@@H]1NC(=O)[C@H](CCCNC(=N)N)NC(=O)[C@H](CCCNC(=N)N)NC(=O)[C@H](CCCNC(=N)N)NC(=O)[C@H](Cc2c[nH]c3ccccc23)NC(=O)[C@H](CCCNC(=N)N)NC(=O)[C@H](CCCNC(=N)N)NC(=O)[C@@H](N)CSSC[C@@H](C(=O)O)NC1=O [Analog A3] (H-CRRWRRRRC-OH; disulfide 1-9) |  | 0.4 µg/mL | 1.5 µg/mL | 3.3 µg/mL | 5.0 µg/mL | 6.8 µg/mL | 3.0 µg/mL | 6.5 µg/mL | 5.5 µg/mL | 54.0 µg/mL | inhibited | partially or completely inhibited |  | 53.7 µg/mL | 4.2 µg/mL | inhibited | inhibited
